Laboratory results taken from paper PMC10647531, “Effects of Icariin and Its Metabolites on GPCR Regulation and MK-801-Induced Schizophrenia-Like Behaviors in Mice” (Molecules, 2023).

Experiments:
[1] = test system: ferrous-treated rat brain homogenates; test: Lipid peroxidation assay (TBARS); format: biochemical; settings: rat brain homogenate; mean ± SD of triplicate experiments
Experimental: Whole brain homogenates from male Sprague-Dawley rats (6 months old) were prepared according to procedures described in previous studies. […] After 1 h of incubation at 37 °C, the stop solution was added to the reaction mixture. After incubation in boiling water for 1 h, the reaction mixture was extracted with normal butanol and centrifuged (1300× g for 10 min).

M4 mACh receptor (M4R) [2] = target: T1, M4 mACh receptor (M4R) (Homo sapiens, UniProt P08173); test: cAMP agonist assay (M4R); settings: 100 μM
T1 sequence (P08173 1-479): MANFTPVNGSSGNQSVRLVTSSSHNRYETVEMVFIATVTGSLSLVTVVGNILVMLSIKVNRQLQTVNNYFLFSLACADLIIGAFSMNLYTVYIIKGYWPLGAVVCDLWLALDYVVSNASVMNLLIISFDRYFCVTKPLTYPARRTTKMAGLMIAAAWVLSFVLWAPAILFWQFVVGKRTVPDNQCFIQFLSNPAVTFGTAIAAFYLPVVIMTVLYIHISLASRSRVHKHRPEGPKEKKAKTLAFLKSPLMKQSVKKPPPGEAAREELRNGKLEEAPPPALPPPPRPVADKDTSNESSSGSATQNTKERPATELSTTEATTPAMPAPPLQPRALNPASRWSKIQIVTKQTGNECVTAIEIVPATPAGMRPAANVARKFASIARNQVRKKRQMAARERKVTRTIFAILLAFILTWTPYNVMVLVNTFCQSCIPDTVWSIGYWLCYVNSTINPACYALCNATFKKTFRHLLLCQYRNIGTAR

MK-801-treated mice [3] = test: Acoustic startle response task (ASRT), prepulse inhibition; format: in vivo
Experimental: (§1) The mice were housed in the University Animal Care Unit for one week prior to the experiment. Each cage housed 10 mice, and all mice had unlimited access to water and food. […] The Institutional Animal Care and Use Committee of Kyung Hee University approved the mouse experimental protocols (approval number: KHUASP-22-530).
The ASRT was conducted using SR-LAB startle chambers (San Diego Instruments, San Diego, CA, USA), consisting of a box that can lightly confine the mice, a system that can generate sound stimuli regularly, equipment that can measure animal movements, a program that can digitize the measured stimuli, and a source and speaker that can provide sound. The ASRT sessions included three trials: non-stimulus (PPI-1), startle (pulse alone, PPI-2), and prepulse (prepulse + pulse, PPI-3). The PPI-1 trial consisted of background noise only. The PPI-2 trial consisted of constant noise (80−120 dB, five sections) for 40 ms. The PPI-3 trial consisted of a noise prepulse ([…], which are 3, 6, 12, and 16 dB above the background noise, respectively) for 20 ms, a delay for 80 ms, and a 120 dB startle pulse for 40 ms. The percentage score for PPI was calculated as follows: % PPI = [(PPI-2 – PPI-3)/(PPI-2)] × 100(%).

hMAO-B = target: T2, hMAO-B (Homo sapiens, UniProt P27338); test: In vitro hMAO-inhibitory assay (MAO-Glo), hMAO-B; format: biochemical; settings: mean ± SD of triplicate experiments
T2 sequence (P27338 1-520): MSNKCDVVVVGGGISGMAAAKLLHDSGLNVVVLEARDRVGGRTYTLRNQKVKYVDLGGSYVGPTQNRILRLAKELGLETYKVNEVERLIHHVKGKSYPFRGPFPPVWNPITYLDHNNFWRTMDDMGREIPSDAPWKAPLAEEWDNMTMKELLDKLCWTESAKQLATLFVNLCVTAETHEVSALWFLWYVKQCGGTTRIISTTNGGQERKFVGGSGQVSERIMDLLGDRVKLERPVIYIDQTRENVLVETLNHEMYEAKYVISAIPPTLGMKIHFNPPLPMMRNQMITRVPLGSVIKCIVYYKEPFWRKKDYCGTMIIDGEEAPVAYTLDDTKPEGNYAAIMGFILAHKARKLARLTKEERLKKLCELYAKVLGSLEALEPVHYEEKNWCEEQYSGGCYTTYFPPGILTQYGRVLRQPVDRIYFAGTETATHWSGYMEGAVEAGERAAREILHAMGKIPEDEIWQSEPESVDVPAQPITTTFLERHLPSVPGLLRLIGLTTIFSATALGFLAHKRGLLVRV
Description: (§2) A homogeneous luminescent assay using the MAO-Glo™ assay kit (Promega, Madison, WI, USA) was used to evaluate the hMAO-inhibitory activity of icariin and its metabolites according to the manufacturer’s protocol.

hMAO-A = target: T3, hMAO-A (Homo sapiens, UniProt P21397); test: In vitro hMAO-inhibitory assay (MAO-Glo), hMAO-A; format: biochemical; settings: mean ± SD of triplicate experiments
T3 sequence (P21397 1-527): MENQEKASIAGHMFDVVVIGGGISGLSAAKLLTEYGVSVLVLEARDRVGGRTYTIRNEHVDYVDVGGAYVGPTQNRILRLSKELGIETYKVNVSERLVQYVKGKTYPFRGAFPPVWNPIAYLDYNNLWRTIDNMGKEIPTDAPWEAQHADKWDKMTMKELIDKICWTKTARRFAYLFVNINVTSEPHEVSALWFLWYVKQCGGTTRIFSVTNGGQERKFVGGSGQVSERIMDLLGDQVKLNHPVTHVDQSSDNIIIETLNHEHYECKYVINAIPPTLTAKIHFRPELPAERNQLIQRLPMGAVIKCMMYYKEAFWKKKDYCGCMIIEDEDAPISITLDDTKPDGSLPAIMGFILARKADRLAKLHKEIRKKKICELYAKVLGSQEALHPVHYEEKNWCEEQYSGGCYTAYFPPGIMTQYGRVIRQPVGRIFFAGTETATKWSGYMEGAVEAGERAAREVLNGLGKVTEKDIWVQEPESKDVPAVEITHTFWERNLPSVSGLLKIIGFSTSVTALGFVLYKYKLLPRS
Description: as §2

MK-801-treated mice [4] = test: Social novelty preference test (SNPT); format: in vivo
Description: as §1
Three chambers in a rectangular Plexiglas box (w × d × h: 94 × 28 × 30 cm) were used for the SNPT. The left, right, and central chambers were all joined together by openings (w × d: 6 × 28 cm). On the center of the left and right chambers, an iron muntin cylinder lockup (h × d: 11 × 12 cm) was installed. A test mouse was allowed to interact with another mouse that was trapped in the cylinder lockup. A test mouse was placed in the middle chamber during the acclimatization trial (trial-1, 10 min) and was allowed to freely explore all three compartments through the apertures. A mouse that was younger than the test mouse was placed in a lockup in the first sociability experiment (trial-2) following trial-1, while the other lockup remained. The test mouse was taken to the center compartment and allowed to wander around. The second sociability trial (trial-3) was performed immediately after trial-2. A new mouse that was younger than the test mouse was put in the empty cell during trial-3 (10 min), and the test mouse was put into an empty lockup and allowed to explore.

[5] = design: method as in PMID 31844591; settings: cited from earlier work
[6] = target: T4, muscarinic acetylcholine M2 receptor (M2R) (Homo sapiens, UniProt P08172); settings: 100 μM; control agonist 300 nM ACh
T4 sequence (P08172 1-466): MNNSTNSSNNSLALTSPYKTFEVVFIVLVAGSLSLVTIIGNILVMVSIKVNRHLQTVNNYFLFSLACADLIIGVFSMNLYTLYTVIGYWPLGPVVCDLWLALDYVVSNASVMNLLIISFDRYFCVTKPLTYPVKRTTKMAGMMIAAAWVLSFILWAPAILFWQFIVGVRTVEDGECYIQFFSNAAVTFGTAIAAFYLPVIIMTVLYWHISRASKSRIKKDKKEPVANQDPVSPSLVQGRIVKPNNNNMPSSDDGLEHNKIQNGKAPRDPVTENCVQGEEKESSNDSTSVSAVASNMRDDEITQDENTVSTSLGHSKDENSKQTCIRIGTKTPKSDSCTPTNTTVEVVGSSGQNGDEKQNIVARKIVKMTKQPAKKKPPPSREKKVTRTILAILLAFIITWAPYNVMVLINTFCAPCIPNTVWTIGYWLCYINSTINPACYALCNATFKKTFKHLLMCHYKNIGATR

M4 mACh receptor (M4R) [7] = target: T1, M4 mACh receptor (M4R); test: cAMP antagonist assay (M4R); settings: read-out: Antagonist effect (%) M4 (inhibition of the control agonist response)
[8] = target: T4, muscarinic acetylcholine M2 receptor (M2R); test: Radioligand binding assay ([3H]AF-DX 384, CHO-M2R membrane homogenates); design: host or cells: CHO-K1
Experimental: (§3) Next, 10 μM (f.c.) (+)-butaclamol (for D3R) and 1 μM (f.c.) atropine (for M2R) were used to detect nonspecific binding in the respective assays. The binding affinity of a test compound was calculated as the inhibition (%) of control (radioligand)-specific binding.

[9] = target: T5, vasopressin 1A receptor (V1AR) (Homo sapiens, UniProt P37288); format: cell-based; settings: 100 μM; stimulus AVP (10 nM)
T5 construct: host or cells: CHO-K1
Description: a All products including cell-line and reagents were provided by Cerep (Cel le L'Evescault, France).

Human D3R = target: T6, Human D3R (Homo sapiens, UniProt P35462); format: binding; settings: 50 μM
T6 construct: expressed in transfected cells; host or cells: CHO-K1 (membrane homogenates)
Experimental: as §3

T5 sequence (P37288 whole entry): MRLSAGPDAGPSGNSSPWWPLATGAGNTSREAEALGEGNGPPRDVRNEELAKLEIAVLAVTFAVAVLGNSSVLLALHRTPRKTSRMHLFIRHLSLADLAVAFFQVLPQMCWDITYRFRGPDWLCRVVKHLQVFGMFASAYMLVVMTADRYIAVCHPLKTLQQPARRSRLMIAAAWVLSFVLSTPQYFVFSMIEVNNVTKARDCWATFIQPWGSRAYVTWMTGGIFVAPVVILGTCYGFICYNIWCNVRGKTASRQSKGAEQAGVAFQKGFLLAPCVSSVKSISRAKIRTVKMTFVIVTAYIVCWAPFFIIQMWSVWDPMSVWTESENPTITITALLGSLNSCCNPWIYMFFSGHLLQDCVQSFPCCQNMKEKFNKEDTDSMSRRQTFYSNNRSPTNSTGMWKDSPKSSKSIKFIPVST
T6 sequence (P35462 whole entry): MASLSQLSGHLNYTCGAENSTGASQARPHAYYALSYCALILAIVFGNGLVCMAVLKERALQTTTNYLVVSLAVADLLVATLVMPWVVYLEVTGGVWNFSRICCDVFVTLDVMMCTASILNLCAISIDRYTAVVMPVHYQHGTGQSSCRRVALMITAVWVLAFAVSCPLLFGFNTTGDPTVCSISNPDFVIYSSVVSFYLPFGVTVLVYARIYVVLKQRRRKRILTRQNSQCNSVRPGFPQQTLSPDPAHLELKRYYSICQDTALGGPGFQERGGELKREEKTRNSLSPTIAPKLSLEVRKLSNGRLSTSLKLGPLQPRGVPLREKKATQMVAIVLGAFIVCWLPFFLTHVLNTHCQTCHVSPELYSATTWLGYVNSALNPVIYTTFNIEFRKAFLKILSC

Compound: COc1ccc(-c2oc3c(CC=C(C)C)c(O[C@@H]4O[C@H](CO)[C@@H](O)[C@H](O)[C@H]4O)cc(O)c3c(=O)c2O[C@@H]2O[C@@H](C)[C@H](O)[C@@H](O)[C@H]2O)cc1 [Icariin, icariin]
- IC50 [1]: 301 ± 2.16 µM
- agonist effect assay on M4R (M4 mACh receptor (M4R) [2]): opposite effect to that of icariside II
- effect on MK-801-induced PPI deficits (MK-801-treated mice [3]; 3 and 10 mg/kg, p.o., at +12 and +16 dB above the background noise): significantly reversed
- IC50 (hMAO-B): > 500 µM
- IC50 (hMAO-A): 422 ± 7.07 µM
- effect on MK-801-induced social interaction deficits (MK-801-treated mice [4]; 3 and 10 mg/kg, p.o.): significantly reversed

Compound: COc1ccc(-c2oc3c(CC=C(C)C)c(O)cc(O)c3c(=O)c2O)cc1 [Icaritin, icaritin]
- IC50 [1]: 81.3 ± 3.09 µM
- blood-brain barrier penetration [5]: could penetrate the blood-brain barrier (BBB) readily
- effect on MK-801-induced PPI deficits (MK-801-treated mice [3]; 1, 3, and 10 mg/kg, p.o.): no significant effects
- IC50 (hMAO-B): > 500 µM
- Antagonist effect (%) M2 [6]: 54.55%
- IC50 (hMAO-A): > 500 µM
- inhibition at 100 µM (M4 mACh receptor (M4R) [7]): 32.4%
- Radioligand specific binding (%) (M2R) ([8]; 100 μM): 81.95%
- Radioligand specific binding (%) (M2R) ([8]; 150 μM): 64.00%
- blocked radioligand binding to the target binding site (M2R) ([8]; 150 μM): 36%
- effect on MK-801-induced social interaction deficits (MK-801-treated mice [4]; 3 and 10 mg/kg, p.o.): significantly reversed

Compound: C[C@]12N[C@H](Cc3ccccc31)c1ccccc12 [MK-801]
- acoustic startle amplitude (MK-801-treated mice [3]; 0.2 mg/kg alone (i.p.), at 120 dB): significantly increased
- prepulse inhibition (PPI) (MK-801-treated mice [3]; 0.2 mg/kg alone (i.p.), at +3, +6, +12, and +16 dB above the background noise (70 dB)): decreased
- amount of time spent in the chamber with the unknown mouse (MK-801-treated mice [4]; alone, 0.2 mg/kg, i.p., compared with control group): considerably reduced

Compound: Cc1c(C)c2c(c(C)c1O)CCC(C)(C(=O)O)O2 (centres unmarked) [Trolox, reference compound]
- IC50 [1]: 32.3 ± 3.21 µM

Compound: O=C1CCc2ccc(OCCCCN3CCN(c4cccc(Cl)c4Cl)CC3)cc2N1 [aripiprazole, reference compound]
- effect on MK-801-induced PPI deficits (MK-801-treated mice [3]; 1 mg/kg, i.p., at +12 and +16 dB above the background noise): significantly reversed
- effect on MK-801-induced social interaction deficits (MK-801-treated mice [4]; 1 mg/kg, i.p.): significantly reversed

Compound: icariside II
- IC50 [1]: 70.4 ± 2.04 µM
- agonist effect assay on M4R (M4 mACh receptor (M4R) [2]): has an agonist effect
- effect on MK-801-induced PPI deficits (MK-801-treated mice [3]; 1, 3, and 10 mg/kg, p.o.): no significant effects
- antagonist effect on V1AR [9]: 42.0%
- effect on MK-801-induced social interaction deficits (MK-801-treated mice [4]; 1, 3, and 10 mg/kg, p.o.): significantly reversed
- radioligand binding to the target binding site (D3R) (Human D3R): almost completely blocked
